Data as given in PubChem BioAssay AID493095 (Sanford-Burnham Center for Chemical Genomics, 2011).

Assay: cell-free peptide binding blockers, HIV fusion – biochemical, set 2, fluorescence quenching, SAR follow-up (AID 493095)
Conditions: 30 min; cut-off not given, nearly all actives have IC50 up to about 63 µM

IC50, active:
CS(=O)(=O)C1=NSC2=NC(=O)/C(=C\c3cccn3-c3cc(Cl)cc(Cl)c3)C(=N)N21 30 µM
CS(=O)(=O)C1=NSC2=NC(=O)/C(=C\c3cccn3-c3ccc(Cl)cc3)C(=N)N21 25.2 µM
O=C(O)CCC(C(=O)O)N1C(=O)/C(=C\c2ccco2)SC1=S (centres undefined) 1.38 µM
CCOC(=O)C1=C(C)N=c2sc(=Cc3ccc(OCC(=O)O)cc3)c(=O)n2C1c1ccc(F)cc1 (centres undefined) 6.28 µM
CCOC(=O)C1=C(C)N=c2sc(=Cc3ccc(OCC(=O)O)cc3)c(=O)n2C1c1ccc(OC)cc1OC (centres undefined) 20.2 µM
CCOC(=O)C1=C(C)N=c2s/c(=C\c3ccc(OCC(=O)O)cc3)c(=O)n2C1c1ccc(OC)c(OCC)c1 (centres undefined) 22.9 µM
Cc1c2c(=O)n(-c3nc4ccccc4s3)nc-2cc(O)n1Cc1ccccc1Cl 7.69 µM
O=C(O)CCCN1C(=O)/C(=C\c2ccc(-c3cccc(Cl)c3)o2)SC1=S 4.27 µM
COc1ccc(-c2ccc(/C=C3\SC(=S)N(CCCC(=O)O)C3=O)o2)cc1 12.9 µM
CS(=O)(=O)C1=NSC2=NC(=O)/C(=C\c3cccn3-c3ccc(F)cc3)C(=N)N21 9.41 µM
CCOC(=O)C1=C(C)N=c2sc(=Cc3ccc(OCC(=O)O)cc3)c(=O)n2C1c1ccccc1OC (centres undefined) 31.6 µM
O=C(O)CCCN1C(=O)/C(=C\c2ccc(-c3ccc(F)cc3)o2)SC1=S 11.1 µM
Cc1ccc(-n2cccc2/C=C2/C(=N)N3C(=NC2=O)SN=C3S(C)(=O)=O)cc1C 5.98 µM
O=C(O)c1ccc(C[n+]2c(-c3ccc([N+](=O)[O-])cc3)csc2Nc2ccccc2)cc1 15.4 µM
COc1ccc(CCn2c(O)cc3nn(-c4nc5ccccc5s4)c(=O)c-3c2C)cc1 5.6 µM
CC1=C(C(=O)OC(C)C)C(c2ccc(Cl)cc2)n2c(s/c(=C\c3ccc(OCC(=O)O)cc3)c2=O)=N1 (centres undefined) 19.1 µM
CS(=O)(=O)C1=NSC2=NC(=O)/C(=C\c3cccn3-c3ccc(Br)cc3)C(=N)N21 5.36 µM
CCOC(=O)C1=C(C)N=c2sc(=Cc3ccc(OCC(=O)O)cc3)c(=O)n2C1c1ccccc1 (centres undefined) 19.6 µM
COc1cccc(-n2cccc2/C=C2/C(=N)N3C(=NC2=O)SN=C3S(C)(=O)=O)c1 6.31 µM
CS(=O)(=O)C1=NSC2=NC(=O)/C(=C\c3cccn3-c3cccc(C(F)(F)F)c3)C(=N)N21 5.8 µM
CS(=O)(=O)C1=NSC2=NC(=O)/C(=C\c3cccn3-c3ccc(Cl)c(Cl)c3)C(=N)N21 6.55 µM
COc1ccc(-n2cccc2/C=C2/C(=N)N3C(=NC2=O)SN=C3S(C)(=O)=O)cc1Cl 12.2 µM
CCOC(=O)C1=C(C)N=c2sc(=Cc3ccc(OCC(=O)O)cc3)c(=O)n2C1c1cc(OC)c(OC)c(OC)c1 (centres undefined) 7.82 µM
CCOc1ccc(-n2cccc2/C=C2/C(=N)N3C(=NC2=O)SN=C3S(C)(=O)=O)cc1 40.3 µM
O=C(O)CCCN1C(=O)/C(=C/c2ccc(-c3cccc(C(F)(F)F)c3)o2)SC1=S 5.43 µM
CS(=O)(=O)C1=NSC2=NC(=O)/C(=C\c3cccn3-c3cccc(F)c3)C(=N)N21 3.71 µM
COc1ccccc1NS(=O)(=O)c1ccc2c(c1)C1C=CCC1C(c1ccc(C(=O)O)cc1)N2 (centres undefined) 69.1 µM
O=C(O)CCCN1C(=O)/C(=C\c2ccc(-c3ccc(Cl)cc3)o2)SC1=S 44.8 µM
CS(=O)(=O)C1=NSC2=NC(=O)/C(=C\c3cccn3-c3cccc(Cl)c3)C(=N)N21 9.16 µM
O=C(O)c1ccc(C2Nc3ccc(S(=O)(=O)Nc4cc(Cl)ccc4Cl)cc3C3C=CCC32)cc1 (centres undefined) 48.2 µM
Cc1ccc(-n2cccc2/C=C2/C(=N)N3C(=NC2=O)SN=C3S(C)(=O)=O)cc1 6.24 µM
O=C(O)c1ccc([C@@H]2Nc3ccc(S(=O)(=O)Nc4cccc5ccccc45)cc3[C@@H]3C=CC[C@@H]32)cc1 17.3 µM
CCc1ccc(-n2cccc2/C=C2/C(=N)N3C(=NC2=O)SN=C3S(C)(=O)=O)cc1 53 µM
CCOC(=O)C1=C(C)N=c2s/c(=C\c3ccc(OCC(=O)O)cc3)c(=O)n2C1c1ccc(Cl)cc1 (centres undefined) 8.89 µM
O=C(O)CCCN1C(=O)/C(=C/c2cc3ccccc3o2)SC1=S 10.8 µM
O=C(O)CCCN1C(=O)/C(=C\c2ccc(-c3ccc(Br)cc3)o2)SC1=S 3.26 µM
CCOC(=O)C1=C(c2ccccc2)N=c2s/c(=C\c3ccc(OCC(=O)O)cc3)c(=O)n2C1c1cccc(OC)c1 (centres undefined) 7.41 µM
COc1cccc(C2C(C(=O)Nc3ccccc3)=C(C)N=c3sc(=Cc4ccc(OCC(=O)O)cc4)c(=O)n32)c1 (centres undefined) 8.05 µM
O=C(O)CCCN1C(=O)/C(=C/c2ccc(-c3ccc(Cl)c(Cl)c3)o2)SC1=S 28.9 µM
